Assay results as given in publication PMC2375285, “Inhibition of all-TRANS-retinoic acid metabolism by R116010 induces antitumour activity” (British Journal of Cancer, 2002).

How the values were obtained:
T47D cells = assay: T47D cell proliferation (MTT assay, 7 days); format: cell-based, human
Experimental: T47D cells were seeded in Falcon® 96-well cell culture plates (Life Technologies, Merelbeke, Belgium) at 2500 cells per well in a total volume of 150 μl. Cells were allowed to adhere to plastic for 24 h. Drugs and/or medium were added to a final volume of 200 μl (day 0). Cells were grown under these conditions for 7 days, with renewal of medium and drugs on days 2 and 5. On day 7, medium was renewed and 25 μl MTT-solution was added, and cells were further incubated for 2 h in a cell incubator. The medium was aspirated and 25 μl Sorensen glycine buffer (0.1 M glycine, 0.1 M NaCl; pH 10.5) was added together with 100 μl DMSO to solubilize the blue MTT-formazan product. […] Data are presented as mean±s.d. of three or four independent experiments. Within an experiment, the result of each experimental condition is the mean of six replicate wells. The IC50-values were calculated by non-linear regression analysis using SigmaPlot 4.01 software.

in vivo = conditions: mouse, po
Experimental: (§1) Cells (1.5×10^6) were injected intraperitoneally in syngeneic A/J mice. […] Each group consisted of 10 animals for experiments with R116010 and of six animals for experiments with RA. All treatments were performed by oral gavage. […] The control groups were given the vehicle 20% 4-OH-β-cyclodextrine in sterile saline. Mice were daily examined for adverse drug effects. At the end of the experiments, subcutaneous tumours were excised 24 h after the last treatment and weighed to validate the antitumoural effects of the treatment.
(§2) Data are represented as box plots showing median group value, 25/75th percentile, 10/90th percentile and outliers. Groups were statistically compared to the vehicle-treated groups using the Mann–Whitney U-test. Significance was defined at the level of P<0.05.

TA3-Ha mammary tumours = assay: TA3-Ha mammary carcinoma model; conditions: for toxicity findings: at toxic dose: RA 5, R116010 5, liarozole fumarate 20 mg kg^−1; for therapeutic window: maximum tolerated dose versus lowest active dose, TA3-Ha model; for lowest active dose inhibiting TA3-Ha tumour growth: day 1 until day 21, tumour weight
Experimental: as §1, §2

CYP2B1/2 = assay: Testosterone 16β-hydroxylase in rat liver microsomes; format: biochemical; conditions: Rat liver microsomes
Experimental: (§3) The conversion of androstenedione to estrone by aromatase (CYP19) in human placental microsomes, the conversion of 17-hydroxy-20-dihydroprogesterone to testosterone by 17,20-lyase (CYP17) in rat testicular S10 fractions, and the 2α-, 7α-, 6β-, and 16β-hydroxylation of testosterone (CYP2C11, CYP2A1, CYP3A, CYP2B1/2) in rat liver microsomes were carried out as described ([Vanden Bossche et al, 1990]).

17,20-lyase (CYP17) = molecular target: T1, 17,20-lyase (CYP17) (Rattus norvegicus, UniProt P11715); assay: 17,20-lyase in rat testicular S10 fraction; format: biochemical
T1 construct: 17,20-lyase (CYP17) in rat testicular S10 fractions; from tissue; host or cells: rat testis, S10 fraction
T1 sequence (P11715 1-507): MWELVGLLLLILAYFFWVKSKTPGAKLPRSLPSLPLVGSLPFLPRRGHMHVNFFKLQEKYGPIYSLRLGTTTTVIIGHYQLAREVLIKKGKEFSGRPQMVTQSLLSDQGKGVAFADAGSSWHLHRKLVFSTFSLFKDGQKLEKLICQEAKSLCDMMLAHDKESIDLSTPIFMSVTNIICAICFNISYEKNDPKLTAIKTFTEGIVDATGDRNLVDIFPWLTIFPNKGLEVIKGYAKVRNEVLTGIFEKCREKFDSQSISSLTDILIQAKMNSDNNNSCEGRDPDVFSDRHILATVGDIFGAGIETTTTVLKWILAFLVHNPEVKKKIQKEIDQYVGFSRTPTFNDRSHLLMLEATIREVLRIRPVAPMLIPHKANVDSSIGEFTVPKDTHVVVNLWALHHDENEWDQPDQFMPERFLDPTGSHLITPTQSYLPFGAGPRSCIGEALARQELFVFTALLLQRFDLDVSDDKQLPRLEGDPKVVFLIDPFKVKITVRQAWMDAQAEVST
Experimental: Metabolism of RA by CYP26A1 was measured in microsomes of T47D human breast cancer cells that were pretreated for 16 h with 1 μM RA to induce RA metabolism. Microsomes were prepared exactly as described by [Han and Choi (1996)], and RA metabolism was measured as described by [Van Wauwe et al (1994)]. The conversion of androstenedione to estrone by aromatase (CYP19) in human placental microsomes, the conversion of 17-hydroxy-20-dihydroprogesterone to testosterone by 17,20-lyase (CYP17) in rat testicular S10 fractions, and the 2α-, 7α-, 6β-, and 16β-hydroxylation of testosterone (CYP2C11, CYP2A1, CYP3A, CYP2B1/2) in rat liver microsomes were carried out as described ([Vanden Bossche et al, 1990]).

CYP2C11 = molecular target: T2, CYP2C11 (Rattus norvegicus, UniProt P08683); assay: Testosterone 2α-hydroxylase in rat liver microsomes; format: biochemical; conditions: Rat liver microsomes
T2 construct: hydroxylation of testosterone (CYP2C11, CYP2A1, CYP3A, CYP2B1/2) in rat liver microsomes; from tissue; host or cells: rat liver, microsomes
T2 sequence (P08683 1-500): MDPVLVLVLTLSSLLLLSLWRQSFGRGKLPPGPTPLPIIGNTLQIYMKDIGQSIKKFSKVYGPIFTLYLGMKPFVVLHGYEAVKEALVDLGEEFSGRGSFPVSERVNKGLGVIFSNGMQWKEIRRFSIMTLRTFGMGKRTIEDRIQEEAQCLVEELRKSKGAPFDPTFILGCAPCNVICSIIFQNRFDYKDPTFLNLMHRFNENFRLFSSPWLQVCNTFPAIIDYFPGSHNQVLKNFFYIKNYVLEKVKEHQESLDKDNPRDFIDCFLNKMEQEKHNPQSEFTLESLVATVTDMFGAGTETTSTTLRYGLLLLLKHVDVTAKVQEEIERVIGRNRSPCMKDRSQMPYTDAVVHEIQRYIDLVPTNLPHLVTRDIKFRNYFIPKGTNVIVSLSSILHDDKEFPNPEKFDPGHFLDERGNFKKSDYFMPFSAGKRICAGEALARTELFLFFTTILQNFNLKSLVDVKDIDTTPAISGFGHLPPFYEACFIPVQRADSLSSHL
Experimental: as §3

CYP2A1 = molecular target: T3, CYP2A1 (Rattus norvegicus, UniProt P11711); assay: Testosterone 7α-hydroxylase in rat liver microsomes; format: biochemical; conditions: Rat liver microsomes
T3 construct: hydroxylation of testosterone (CYP2C11, CYP2A1, CYP3A, CYP2B1/2) in rat liver microsomes; from tissue; host or cells: rat liver, microsomes
T3 sequence (P11711 1-492): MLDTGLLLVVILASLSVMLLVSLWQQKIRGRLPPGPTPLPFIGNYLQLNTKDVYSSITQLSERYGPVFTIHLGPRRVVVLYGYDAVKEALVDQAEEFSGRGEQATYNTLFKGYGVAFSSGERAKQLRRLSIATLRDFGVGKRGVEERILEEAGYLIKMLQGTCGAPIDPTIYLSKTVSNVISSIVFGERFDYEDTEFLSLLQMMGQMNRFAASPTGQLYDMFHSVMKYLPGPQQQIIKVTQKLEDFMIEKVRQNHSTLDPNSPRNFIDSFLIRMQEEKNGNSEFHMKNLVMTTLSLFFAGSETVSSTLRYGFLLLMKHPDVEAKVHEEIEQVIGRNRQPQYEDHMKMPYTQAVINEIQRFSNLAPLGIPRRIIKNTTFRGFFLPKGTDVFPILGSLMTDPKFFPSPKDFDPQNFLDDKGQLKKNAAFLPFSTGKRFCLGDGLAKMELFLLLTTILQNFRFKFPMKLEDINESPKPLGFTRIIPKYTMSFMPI
Experimental: as §3

[1] = tested on: RA metabolism in intact T47D cells; assay: Microcolumn assay for RA metabolism in intact T47D cells; format: cell-based, human; conditions: intact T47D cells pretreated 16 h with 1 μM RA; 0.1 μM [3H]RA, 90 min; read-out: IC50 inhibition of RA metabolism
Experimental: RA metabolism was quantitatively determined using the microcolumn assay as described previously ([Krekels et al, 1997]). […] Cells were then washed twice with culture medium, harvested and resuspended at 4×10^6 cells ml^−1. An aliquot of this cell suspension (450 μl) was incubated for 90 min in the presence of 0.1 μM [11, 12-^3H(N)]RA, after which 2 ml acetonitrile was added. After centrifugation for 10 min at 780 g, the resulting deproteinized supernatant was acidified with 2.5 ml of 40 mM acetic acid and applied to a 3 ml C18 Bond Elut LRC column (Varian, Harbor City, CA, USA; pretreated with 4 ml distilled water) under a vacuum of 127 mmHg using VAC ELUT SPS-24 and the effluent was collected. The column was eluted with 1 ml 40% acetonitrile and the effluent was collected in the same vial. Radioactivity in the collected effluent, containing the polar metabolites, was determined in a Packard Tri-carb 4530 liquid scintillation analyzer. Optiphase ‘Hi Safe II’ (Wallac, Milton Keynes, UK) was used as a scintillator. Data are presented as mean±s.d. of three or four independent experiments. The IC50-values were calculated by non-linear regression analysis using SigmaPlot 4.01 software.

CYP3A = conditions: microsomes
Experimental: as §3

For `CC1=C(/C=C/C(C)=C/C=C/C(C)=C/C(=O)O)C(C)(C)CCC1` [RA, All-trans-retinoic acid], the IC50 (T47D cells; Homo sapiens, T47D, 168 h, read-out: IC50 T47D cell proliferation) was 0.002 ± 0.0005 µM, the MTD (in vivo) was 5 mg/kg and the “loss of body weight” value (TA3-Ha mammary tumours; RA 5 mg kg^−1, mice) was 5%. The toxicity findings (TA3-Ha mammary tumours) was “hair loss, and impaired movement due to bone fractures”, the therapeutic window (TA3-Ha mammary tumours) was “does not show a real therapeutic window” and the “dose at which toxicity was observed” value (TA3-Ha mammary tumours; mice, oral, twice daily, toxicity related to hypervitaminosis A) was 5 mg/kg. For the same compound, the “lowest active dose inhibiting TA3-Ha tumour growth” value (TA3-Ha mammary tumours; oral, twice daily) was 2.5 mg/kg.
`Clc1cccc(C(c2ccc3[nH]cnc3c2)n2ccnc2)c1.Clc1cccc(C(c2ccc3[nH]cnc3c2)n2ccnc2)c1.O=C(O)/C=C/C(=O)O.O=C(O)/C=C/C(=O)O.O=C(O)/C=C/C(=O)O` (racemic) [liarozole-fumarate, ±-5-[(3-chlorophenyl)(1H-imidazole-1-yl)methyl]-1H-benzimidazole (E)-2-butenedioate (2:3), reference compound] showed an IC50 (CYP2B1/2) of 0.5 µM, an IC50 (17,20-lyase (CYP17)) of 0.11 µM and an IC50 (CYP2C11) of 2.9 µM. The IC50 (CYP2A1) was greater than 10 µM, the IC50 [1] was 1.4 µM and the IC50 (CYP3A) was 0.4 µM. For the same compound, the “decrease of T47D cell proliferation by itself” value (T47D cells; 10 μM, compound alone) was “approximately 25%”, the “enhancement of the antiproliferative activity of RA” value (T47D cells; liarozole-fumarate tested up to 10 μM, T47D cells) was “unable to enhance” and the toxicity findings (TA3-Ha mammary tumours) was “hair loss and bone fractures”. For the same compound, the therapeutic window (TA3-Ha mammary tumours) was “no therapeutic window” and the “lowest active dose inhibiting TA3-Ha tumour growth” value (TA3-Ha mammary tumours; oral, twice daily) was 10 mg/kg.
